US11078222B2, “Hydroxybenzoic acid derivatives, methods and uses thereof” (UNiVERSIDADE DO PORTO, priority 2016, dated 2021)

Key:
[1] = tested on: human hepatocellular carcinoma cells (HepG2); experiment: Cytotoxicity, SRB method; assay type: cell-based; details: HepG2, 48 hour, SRB
Procedure: In an embodiment, and as an example, the cytotoxicity of AntiOxBENs was assessed using monolayer cultures of human hepatocytes from hepatocellular carcinoma (HepG2) and SRB method (FIG. 8).
In an embodiment, the cytotoxicity profile of AntiOxBENs was evaluated in human hepatocellular carcinoma HepG2 cells. Human hepatocellular carcinoma HepG2 cells were cultured in high-glucose medium composed by Dulbecco's modified Eagle's medium (DMEM; D5648) supplemented with sodium pyruvate (0.11 g/L), sodium bicarbonate (1.8 g/L) and 10% fetal bovine serum (FBS) and 1% of antibiotic penicillin-streptomycin 100× solution. Cells were maintained at 37° C. in a humidified incubator with 5% CO2. HepG2 cells were seeded at density of 4×10^4 cells/mL and grown for 24 hours before treatment.
In an embodiment the cytotoxicity screening was performed as follows: cells were placed on 48-well plate (2×10^4 cells/500 μL) and then were incubated during 48 hour with AntiOxBENs concentrations ranging 25 μM to 500 μM. After incubation, sulforhodamine B (SRB) assay was used for cell density determination based on the measurement of cellular protein content. Briefly, after incubation, the medium was removed and wells rinsed with PBS […]. Cells were fixed by adding 1% acetic acid in 100% methanol for at least 2 hours at −20° C. Later, the fixation solution was discarded and the plates were dried in an oven at 37° C. Two hundred and fifty microliters of 0.5% SRB in 1% acetic acid solution was added and incubated at 37° C. for 1 h. The wells were then washed with 1% acetic acid in water and dried. Then, 500 μl of Tris (pH 10) was added and the plates were stirred for 15 min. Finally, 200 μl of each supernatant was transferred in 96-well plates and optical density was measured at 540 nm. Data are means±SEM of four independent experiments and the results are expressed as percentage of control (control=100%), which represents the cell density without any treatment in the respective time point.

[2] = tested on: rat liver mitochondria (RLM); experiment: Mitochondrial transmembrane electric potential (safranine fluorescence); assay type: biochemical
Procedure: In an embodiment, and as an example, the toxicity effects of some AntiOxBENs and MitoQ on the mitochondrial bioenergetics, namely on RLM Δψ and respiration parameters, were measured. The Δψ represents the main component of the electrochemical gradient generated by mitochondrial respiration and accounts for more than 90% of the total available energy. For mitochondrial respiration assays, glutamate/malate (for complex I) and succinate (for complex II) were used as substrates. In addition, the mitochondrial oxidative phosphorylation coupling index, known as respiratory control ratio (RCR, state 3/state 4 respiration) and ADP/O index (the coupling between ATP synthesis and oxygen consumption) were also calculated. AntiOxBENs and MitoQ were tested at antioxidant-relevant concentrations, with 10 μM being the highest concentration.
In an embodiment, the evaluation of AntiOxBENs effect on mitochondrial transmembrane electric potential (Δψ) was performed as follows: the mitochondrial transmembrane electric potential (Δψ) was estimated through the evaluation of fluorescence changes of safranine (5 μM) and was recorded on a spectrofluorometer operating at excitation and emission wavelengths of 495 and 586 nm, with a slit width of 5 nm. Increasing concentrations of AntiOxBENs (2.5-10 μM) were added to the reaction medium (200 mM sucrose, 1 mM KH2PO^4, 10 mM Tris (pH 7.4) and 10 μM EGTA) containing respiratory substrates glutamate/malate (5 mM and 2.5 mM respectively) or succinate (5 mM) and RLM (0.5 mg in 2 mL final volume) and allowed to incubate for a 5 min period prior to initiate the assay, at 25° C. In this assay, safranine (5 μM) and ADP (25 nmol) were used to initiate the assay and to induce depolarization, respectively. Then, 1 μM FCCP was added at the end of all experiments to depolarize mitochondria. Δψ was calculated using a calibration curve obtained when RLM were incubated in a K^+-free reaction medium containing 200 mM sucrose, 1 mM NaH2PO4, 10 mM Tris (pH 7.4) and 10 μM EGTA, supplemented with 0.4 μg valinomicin. […] “Repolarization” corresponded to the recovery of membrane potential after the complete phosphorylation of ADP added. Lag phase reflected the time required to phosphorylate the added ADP. Isolated RLM developed a Δψ≈226 mV and Δψ≈202 mV (negative inside) when glutamate/malate or succinate were used, respectively. Data are means±SEM of five independent experiments.

[3] = DPPH radical scavenging activity (total antioxidant capacity); assay type: biochemical; details: ethanol, 515 nm, 45 min
Procedure: (§1) The radical scavenging activity of AntiOxClNs was evaluated by means of total antioxidant capacity assays based on DPPH., ABTS.^+ and GO. radicals. All these methods involved the spectrophotometric measurement of the absorbance decrease resulting from radical (DPPH., ABTS.^+ or GO.) deactivation with an antioxidant. The results were expressed in IC50, which is defined as the minimum antioxidant concentration necessary to reduce the amount of radical by 50%. Antioxidant assays were performed in a multiplate reader (Powerwave XS Microplate Reader) from Bio Tech instruments.
A DPPH ethanolic solution (6.85 mM) was also prepared and then diluted to reach the absorbance of 0.72±0.02 at 515 nm. Each compound solution (20 μL) was added to 180 μL of DPPH. solution in triplicate, and the absorbance at 515 nm was recorded minutely over 45 minutes. […] Dose-response curves were established for the determination of IC50 values.

[4] = tested on: rat liver mitochondria (RLM); experiment: Mitochondrial uptake by energised RLM, TPP-selective electrode; assay type: in vitro ADME; details: energised RLM, succinate
Procedure: In an embodiment, and as an example, the mitochondrial uptake of some AntiOxBENs was assessed in isolated rat liver mitochondria (RLM) in response to the membrane potential. AntiOxBENs can accumulate inside mitochondria driven by the Δψ (FIG. 3A). Different AntiOxBENs accumulation outlines within the mitochondrial matrix have been measured. […] The following ranking order was attained: AntiOxBEN2<AntiOxBEN1<AntiOxBEN3.
In an embodiment, the AntiOxBENs mitochondria uptake by energized RLM was evaluated as follows: RLM (0.5 mg protein/mL) were incubated with AntiOxBENs at 37° C. under constant stirring in 1 mL of KCl medium (120 mM KCl, 10 mM HEPES, pH 7.2 and 1 mM EGTA). Five sequential 1 μM additions of each AntiOxBENs were performed to calibrate the electrode response in the presence of rotenone (1.5 μM). Then, succinate (10 mM) was added to generate […]. Valinomicin (0.2 μg/mL) was added at the end of the assay to dissipate Δψ. The measurements were performed with an ion-selective electrode, which measure the distribution of tetraphenylphosphonium cation (TPP+) and Ag/AgCl2 electrode as reference. The mitochondrial accumulation ratio was calculated by the disappearance of AntiOxBENs from extra- to intramitochondrial medium assuming an intramitochondrial volume of 0.5 μL/mg protein and a binding correction for the mitochondrial uptake of TPP compounds.

[5] = ABTS radical cation scavenging activity; assay type: biochemical; details: ethanol, 15 min
Procedure: as §1
In an embodiment, the ABTS.^+ scavenging activity was evaluated as follows: ethanolic solutions of the test compounds with increasing concentrations (range between 10 μM and 500 μM) were prepared. ABTS. radical cation solution was obtained by addition of 150 mM aqueous potassium persulfate solution (163 μL) to 10 mL of 7 mM aqueous ABTS solution followed by storage in the dark at room temperature for 16 h (2.45 mM final concentration). The solution was then diluted in ethanol to reach the absorbance of 0.72±0.02. After addition of the compound (20 μL), in triplicate, to ABTS.^+ solution (180 μL) the spectrophotometric measurement was carried out each minute over 15 minutes. […] Dose-response curves were established for the determination of IC50 values.

O=C(NCCCCCC[P+](c1ccccc1)(c1ccccc1)c1ccccc1)c1ccc(O)c(O)c1.[Br-] [AntiOxBEN1, 6-(3,4-dihydroxybenzamido)hexyltriphenylphosphonium bromide]
toxicity / effect on HepG2 cell proliferation ([1]; 25 μM to 500 μM): small inhibition of cell proliferation for lower concentrations
concentrations at which cell proliferation was stimulated [1]: higher than 100 μM
ADP-induced depolarization (ΔΨ in - mV) ([2]; Glutamate/Malate, 2.5 μM): 199.5 ± 16.6 - mV
Lag Phase ([2]; Glutamate/Malate, 2.5 μM): 131.8 ± 18.9 s
Maximum potential (ΔΨ in - mV) ([2]; Glutamate/Malate, 2.5 μM): 216.8 ± 18.9 - mV
Repolarization Potential (ΔΨ in - mV) ([2]; Glutamate/Malate, 2.5 μM): 212.3 ± 18.2 - mV
ADP-induced depolarization (ΔΨ in - mV) ([2]; Glutamate/Malate, 5 μM): 209.4 ± 20.3 - mV
Lag Phase ([2]; Glutamate/Malate, 5 μM): 137.8 ± 22.5 s
Maximum potential (ΔΨ in - mV) ([2]; Glutamate/Malate, 5 μM): 224.8 ± 24.7 - mV
Repolarization Potential (ΔΨ in - mV) ([2]; Glutamate/Malate, 5 μM): 219.0 ± 22.9 - mV
ADP-induced depolarization (ΔΨ in - mV) ([2]; Glutamate/Malate, 10 μM): 192.6 ± 15.0 - mV
Lag Phase ([2]; Glutamate/Malate, 10 μM): 148.7 ± 48.4 s
Maximum potential (ΔΨ in - mV) ([2]; Glutamate/Malate, 10 μM): 200.4 ± 16.0 - mV
Repolarization Potential (ΔΨ in - mV) ([2]; Glutamate/Malate, 10 μM): 199.4 ± 17.1 - mV
ADP-induced depolarization (ΔΨ in - mV) ([2]; Succinate, 2.5 μM): 180.3 ± 17.1 - mV
Lag Phase ([2]; Succinate, 2.5 μM): 120.0 ± 32.1 s
Maximum potential (ΔΨ in - mV) ([2]; Succinate, 2.5 μM): 191.4 ± 18.2 - mV
Repolarization Potential (ΔΨ in - mV) ([2]; Succinate, 2.5 μM): 190.3 ± 17.4 - mV
ADP-induced depolarization (ΔΨ in - mV) ([2]; Succinate, 5 μM): 175.4 ± 12.9 - mV
Lag Phase ([2]; Succinate, 5 μM): 93.6 ± 29.2 s
Maximum potential (ΔΨ in - mV) ([2]; Succinate, 5 μM): 184.9 ± 13.1 - mV
Repolarization Potential (ΔΨ in - mV) ([2]; Succinate, 5 μM): 181.0 ± 13.5 - mV
ADP-induced depolarization (ΔΨ in - mV) ([2]; Succinate, 10 μM): 182.4 ± 14.4 - mV
Lag Phase ([2]; Succinate, 10 μM): 105.0 ± 28.1 s
Maximum potential (ΔΨ in - mV) ([2]; Succinate, 10 μM): 188.9 ± 14.8 - mV
Repolarization Potential (ΔΨ in - mV) ([2]; Succinate, 10 μM): 188.8 ± 15.8 - mV
IC50 [3]: 27.3 µM
accumulation ratio by rat liver mitochondria [4]: AntiOxBEN2<AntiOxBEN1<AntiOxBEN3
IC50 [5]: 29.9 µM
